{
  "source": "patent US7883846B2",
  "about": "“Heterologous stimulus-gated ion channels and methods of using same” (priority 2002, dated 2011)",
  "key": {"[1]": {"system": "hippocampal neurons lacking the cognate exogenous receptor", "experiment": "Stimulation of hippocampal neurons lacking the cognate exogenous receptor / untransfected neurons", "type": "cell-based, rat", "settings": "50 nM capsaicin, 100 μM menthol, 50 μM ATP; off-diagonal receptor-agonist combinations"}, "rat P2X2": {"system": "rat P2X2", "experiment": "Pharmacological stimulation of transfected hippocampal neurons, whole-cell patch clamp (P2X2)", "type": "cell-based", "settings": "50 μM ATP, 1-ml bolus, whole-cell current clamp, 50 μM AP-5 plus 10 μM CNQX", "method": "Three plasmid species were prepared, each species containing a stimulus-gated ion channel (rat TRPV1, rat TRPM8 or rat P2X2) under the control of the CMV promoter in pCI-fluor, a derivative of the mammalian expression vector pCI-neo (Promega). To create pCI-fluor, the aminoglycoside phosphotransferase coding sequence of pCI-neo was replaced with that of EGFP bearing a 20-amino acid N-terminal GAP43 tag (Zemelman, Lee et al. 2002). Rat TRPV1 and rat TRPM8 were expressed as monomers; rat P2X2 subunits were linked into covalent trimers via tandem repeats of the tripeptide -Ser-Gly-Gly-.\nHippocampal neurons, obtained from E19 rats and grown in dissociated cultures, were exposed to 4.2 μg cm^−2 of calcium phosphate-precipitated plasmid DNA as described in Example 1 (pH 7.08) for 20 min to allow plasmid uptake. Transfections were performed on day 8 after plating; immunocytochemical analyses and electrophysiological recordings on days 6-10 after transfection. […]\n(§1) Transfected neurons in cultures and infected neurons in brain slices were identified by GAP43-EGFP fluorescence and recorded in the whole-cell patch-clamp configuration. […] Membrane potentials and transmembrane currents were recorded with an Axoclamp-2B amplifier (Axon Instruments) in bridge and continuous single-electrode voltage-clamp mode, respectively, and digitized at 5 kHz without filtering (Digidata 1200, Axon Instruments). […]"}, "rat TRPV1": {"target": "T1, rat TRPV1 (Rattus norvegicus, UniProt O35433)", "T1 construct": "expressed in transfected cells; host or cells: dissociated hippocampal neurons from E19 rats, calcium phosphate transfection of pCI-fluor plasmid", "T1 sequence (O35433 whole entry)": "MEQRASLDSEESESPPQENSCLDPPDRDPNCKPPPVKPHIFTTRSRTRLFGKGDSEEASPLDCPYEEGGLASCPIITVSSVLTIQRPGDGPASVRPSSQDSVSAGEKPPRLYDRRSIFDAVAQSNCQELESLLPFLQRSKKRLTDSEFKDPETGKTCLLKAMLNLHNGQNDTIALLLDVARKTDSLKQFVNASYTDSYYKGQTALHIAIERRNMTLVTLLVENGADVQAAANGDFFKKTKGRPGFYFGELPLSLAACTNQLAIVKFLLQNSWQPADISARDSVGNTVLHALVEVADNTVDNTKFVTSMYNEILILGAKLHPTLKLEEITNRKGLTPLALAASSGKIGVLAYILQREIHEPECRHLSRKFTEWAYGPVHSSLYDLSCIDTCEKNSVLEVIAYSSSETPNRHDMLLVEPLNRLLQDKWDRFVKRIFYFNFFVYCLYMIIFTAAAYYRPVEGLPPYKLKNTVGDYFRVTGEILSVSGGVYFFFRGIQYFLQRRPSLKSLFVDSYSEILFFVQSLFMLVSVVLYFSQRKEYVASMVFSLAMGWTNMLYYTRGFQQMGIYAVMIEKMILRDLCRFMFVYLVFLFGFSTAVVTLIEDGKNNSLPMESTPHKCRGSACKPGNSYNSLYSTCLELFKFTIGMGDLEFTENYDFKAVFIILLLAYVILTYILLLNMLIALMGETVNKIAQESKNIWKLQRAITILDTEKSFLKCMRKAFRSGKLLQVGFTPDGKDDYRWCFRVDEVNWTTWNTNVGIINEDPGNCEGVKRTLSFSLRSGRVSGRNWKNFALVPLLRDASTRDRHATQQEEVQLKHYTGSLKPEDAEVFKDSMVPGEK", "experiment": "Pharmacological stimulation of transfected hippocampal neurons, whole-cell patch clamp (TRPV1)", "type": "cell-based", "method": "(§2) Three plasmid species were prepared, each species containing a stimulus-gated ion channel (rat TRPV1, rat TRPM8 or rat P2X2) under the control of the CMV promoter in pCI-fluor, a derivative of the mammalian expression vector pCI-neo (Promega). To create pCI-fluor, the aminoglycoside phosphotransferase coding sequence of pCI-neo was replaced with that of EGFP bearing a 20-amino acid N-terminal GAP43 tag (Zemelman, Lee et al. 2002). Rat TRPV1 and rat TRPM8 were expressed as monomers; rat P2X2 subunits were linked into covalent trimers via tandem repeats of the tripeptide -Ser-Gly-Gly-. […]\nas §1\n(§3) To determine dose-response relationships, the peak amplitudes as well as the integrated charges carried by depolarizing currents at different agonist concentrations were measured under whole-cell voltage clamp, at a constant holding potential of −65 mV."}, "[2]": {"target": "T2, TRPV1 expressed ectopically in nociceptor neurons of C. elegans (Rattus norvegicus, UniProt O35433)", "T2 construct": "host or cells: transgenic C. elegans nociceptor neurons", "T2 sequence (O35433 whole entry)": "as above", "settings": "wild-type animals lack the behavior; cited from earlier work"}, "rat TRPM8": {"target": "T3, rat TRPM8 (Rattus norvegicus, UniProt Q8R455)", "T3 construct": "expressed in transfected cells; host or cells: dissociated hippocampal neurons from E19 rats, calcium phosphate transfection of pCI-fluor plasmid", "T3 sequence (Q8R455 whole entry)": "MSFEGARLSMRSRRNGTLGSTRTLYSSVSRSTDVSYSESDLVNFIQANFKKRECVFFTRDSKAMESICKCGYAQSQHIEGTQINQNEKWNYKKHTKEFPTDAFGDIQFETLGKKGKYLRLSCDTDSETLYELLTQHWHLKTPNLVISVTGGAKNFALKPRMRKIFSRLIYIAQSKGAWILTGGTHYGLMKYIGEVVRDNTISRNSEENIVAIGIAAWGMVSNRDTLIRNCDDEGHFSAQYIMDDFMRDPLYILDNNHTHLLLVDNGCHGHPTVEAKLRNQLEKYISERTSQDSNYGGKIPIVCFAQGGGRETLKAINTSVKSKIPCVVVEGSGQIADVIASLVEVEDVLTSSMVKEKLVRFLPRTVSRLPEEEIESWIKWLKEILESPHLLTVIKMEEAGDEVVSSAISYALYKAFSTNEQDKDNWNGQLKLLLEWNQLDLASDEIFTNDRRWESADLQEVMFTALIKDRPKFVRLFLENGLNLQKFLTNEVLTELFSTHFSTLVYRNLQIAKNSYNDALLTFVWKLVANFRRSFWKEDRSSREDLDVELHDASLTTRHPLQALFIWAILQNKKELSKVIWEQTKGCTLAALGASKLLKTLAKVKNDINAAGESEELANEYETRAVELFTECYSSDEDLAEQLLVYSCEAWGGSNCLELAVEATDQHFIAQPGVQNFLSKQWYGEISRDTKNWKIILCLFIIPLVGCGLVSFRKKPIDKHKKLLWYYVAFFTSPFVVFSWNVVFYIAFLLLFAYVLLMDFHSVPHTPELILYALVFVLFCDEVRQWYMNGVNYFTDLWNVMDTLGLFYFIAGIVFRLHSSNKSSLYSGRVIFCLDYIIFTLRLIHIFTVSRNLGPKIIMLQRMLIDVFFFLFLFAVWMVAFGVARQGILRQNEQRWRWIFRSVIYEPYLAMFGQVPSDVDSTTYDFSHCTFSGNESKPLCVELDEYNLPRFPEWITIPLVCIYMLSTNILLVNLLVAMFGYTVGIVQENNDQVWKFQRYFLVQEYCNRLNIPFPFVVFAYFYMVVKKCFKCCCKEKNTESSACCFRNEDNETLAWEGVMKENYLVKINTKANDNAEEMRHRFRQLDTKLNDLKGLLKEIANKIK", "experiment": "Pharmacological stimulation of transfected hippocampal neurons, whole-cell patch clamp (TRPM8)", "type": "cell-based", "method": "as §2, §1, §3"}, "TRPV1": {"target": "T4, TRPV1 (Rattus norvegicus, UniProt O35433)", "T4 construct": "expressed in transfected cells; host or cells: dissociated hippocampal neurons from E19 rats, calcium phosphate transfection of pCI-fluor plasmid", "T4 sequence (O35433 whole entry)": "as the sequence (O35433 whole entry) above", "type": "cell-based"}, "P2X2": {"system": "P2X2", "sequence (P49653 whole entry)": "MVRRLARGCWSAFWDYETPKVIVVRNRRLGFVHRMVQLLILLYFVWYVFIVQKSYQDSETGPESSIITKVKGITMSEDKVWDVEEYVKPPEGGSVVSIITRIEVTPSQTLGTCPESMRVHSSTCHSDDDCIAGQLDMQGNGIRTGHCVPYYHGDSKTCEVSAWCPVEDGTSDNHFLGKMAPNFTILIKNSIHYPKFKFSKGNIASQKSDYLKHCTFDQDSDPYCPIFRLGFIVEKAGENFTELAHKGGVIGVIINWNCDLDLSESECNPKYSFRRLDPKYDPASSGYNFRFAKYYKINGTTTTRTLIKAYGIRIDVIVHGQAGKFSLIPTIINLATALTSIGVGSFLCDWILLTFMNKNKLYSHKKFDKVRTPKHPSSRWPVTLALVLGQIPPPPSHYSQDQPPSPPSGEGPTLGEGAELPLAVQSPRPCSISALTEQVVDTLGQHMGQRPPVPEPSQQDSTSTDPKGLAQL", "experiment": "Photostimulation of P2X2-expressing neurons with caged agonist", "type": "cell-based, rat"}, "[3]": {"settings": "1 mM DMNPE-ATP, 1-s light pulse, mean±s.d., n=16"}},
  "data": [
    {"compound": "Nc1ncnc2c1ncn2[C@@H]1O[C@H](COP(=O)(O)OP(=O)(O)OP(=O)(O)O)[C@@H](O)[C@H]1O", "note": "[ATP]", "values": [
      {"measurement": "stimulation of hippocampal neurons lacking the cognate exogenous receptor", "setting": "[1]", "value": "None of the three agonists, including ATP, was able to stimulate"},
      {"measurement": "response of membrane potential to a bolus of agonist", "setting": "rat P2X2", "value": "depolarization, spiking, and repolarization"}
    ]},
    {"compound": "COc1cc(CNC(=O)CCCC/C=C/C(C)C)ccc1O", "note": "[capsaicin]", "values": [
      {"measurement": "response of membrane potential to a bolus of agonist", "setting": "rat TRPV1; 50 nM capsaicin, 1-ml bolus, whole-cell current clamp, 50 μM AP-5 plus 10 μM CNQX", "value": "depolarization, spiking, and repolarization"},
      {"measurement": "peak spike rate (firing frequency)", "setting": "rat TRPV1; current clamp, sliding 200-ms windows, increasing agonist concentration, 382 agonist applications to 60 neurons", "value": 40, "unit": "Hz"},
      {"measurement": "stimulation of hippocampal neurons lacking the cognate exogenous receptor", "setting": "[1]", "value": "None of the three agonists, including ATP, was able to stimulate"},
      {"measurement": "behavior elicited in C. elegans", "setting": "[2]", "value": "avoidance behaviors"}
    ]},
    {"compound": "CC(C)[C@@H]1CC[C@@H](C)C[C@H]1O", "note": "[menthol, [1R,2S,5R]-5-methyl-2-[1-methylethyl]cyclo-hexanol]", "values": [
      {"measurement": "response of membrane potential to a bolus of agonist", "setting": "rat TRPM8; 100 μM menthol, 1-ml bolus, whole-cell current clamp, 50 μM AP-5 plus 10 μM CNQX", "value": "depolarization, spiking, and repolarization"},
      {"measurement": "EC50", "setting": "rat TRPM8; whole-cell voltage clamp, holding potential −65 mV, results not shown, read-out: half-maximal response", "value": 150, "unit": "µM"},
      {"measurement": "stimulation of hippocampal neurons lacking the cognate exogenous receptor", "setting": "[1]", "value": "None of the three agonists, including ATP, was able to stimulate"}
    ]},
    {"compound": "COc1cc(COC(=O)Oc2ccc(CNC(=O)CCCC/C=C/C(C)C)cc2OC)c([N+](=O)[O-])cc1OC", "note": "[DMNB-capsaicin]", "values": [
      {"measurement": "action potential frequency after light pulse", "setting": "TRPV1", "value": "15-40 Hz"},
      {"measurement": "biological activity due to chemical or enzymatic decomposition of the caged compound", "setting": "TRPV1", "value": "No trace of biological activity"},
      {"measurement": "duration of window of activity", "setting": "TRPV1", "value": "2,651±383 ms"},
      {"measurement": "lag of onset of activity behind optical stimulus", "setting": "TRPV1", "value": "5,035±2,061 ms"},
      {"measurement": "membrane potentials and transmembrane conductances in presence of caged ligand without light", "setting": "TRPV1", "value": "unaffected"},
      {"measurement": "response on repeated photostimulation of the same neuron", "setting": "TRPV1", "value": "did not attenuate"}
    ]},
    {"compound": "P3-(1-(4,5-dimethoxy-2-nitrophenyl)ethyl) (DMNPE) ester of ATP [DMNPE-ATP]", "values": [
      {"measurement": "duration of window of activity", "setting": "P2X2; [3]", "value": "2,456±1,273 ms"},
      {"measurement": "lag period between optical stimulus and window of activity", "setting": "P2X2; [3]", "value": "1,136±96 ms"},
      {"measurement": "membrane potentials and transmembrane conductances in presence of caged ligand without light", "setting": "P2X2; 1 mM DMNPE-ATP, whole-cell current- or voltage-clamp", "value": "unaffected"},
      {"measurement": "biological activity due to chemical or enzymatic decomposition of the caged compound", "setting": "P2X2; recordings lasting for >30 min, 1 mM", "value": "No trace of biological activity"}
    ]}
  ]
}
